Laboratory results: patent publication US20020132800A1, “Dietary supplement composition and method for improving and maintaining healthy skin” (priority 2000, published 2002)

Assays:
[1] = Stability testing of the preferred embodiment tablet under accelerated storage conditions (ingredient content as % of claim); type: physicochemical; conditions: 40 +/- 2 deg C and 75 +/- 5% RH, 150 cc white HDPE bottle
[2] = Dissolution of ingredients from the tablet during accelerated stability testing; type: physicochemical; conditions: 40 +/- 2 deg C and 75 +/- 5% RH, 150 cc white HDPE bottle

Molecule	Result as % of claim at indicated weeks ([1]; 0 wk)	Result as % of claim at indicated weeks ([1]; 4 wk)	Result as % of claim at indicated weeks ([1]; 8 wk)	Result as % of claim at indicated weeks ([1]; 13 wk)	Result as % of claim at indicated weeks ([1]; 26 wk)	Dissolution, result as % of claim at indicated weeks ([2]; 13 wk)	Dissolution, result as % of claim at indicated weeks ([2]; 26 wk)	Dissolution, result as % of claim at indicated weeks ([2]; 0 wk)	Dissolution, result as % of claim at indicated weeks ([2]; 4 wk)	Dissolution, result as % of claim at indicated weeks ([2]; 8 wk)
CC1=C(/C=C/C(C)=C/C=C/C(C)=C/C=C/C=C(C)/C=C/C=C(C)/C=C/C2=C(C)CCCC2(C)C)C(C)(C)CCC1 [Beta Carotene]	123 % of claim	139 % of claim	130 % of claim	144 % of claim	124 % of claim	–	–	–	–	–
O=C(O)CCCC[C@@H]1SC[C@@H]2NC(=O)N[C@@H]21 [Biotin]	105 % of claim	101 % of claim	100 % of claim	114 % of claim	93.0 % of claim	–	–	–	–	–
[Ca+2] [Calcium]	–	–	–	120 % of claim	118 % of claim	119 % of claim	115 % of claim	–	–	–
[Cr] [Chromium]	139 % of claim	128 % of claim	120 % of claim	133 % of claim	121 % of claim	–	–	–	–	–
[Mn+2] [Manganese]	119 % of claim	114 % of claim	115 % of claim	115 % of claim	113 % of claim	–	–	–	–	–
[Se] [Selenium]	103 % of claim	136 % of claim	123 % of claim	129 % of claim	126 % of claim	–	–	–	–	–
[Zn] [Zinc]	121 % of claim	109 % of claim	117 % of claim	108 % of claim	112 % of claim	107 % of claim	–	117 % of claim	102 % of claim	104 % of claim
Silicon	108 % of claim	–	109 % of claim	122 % of claim	107 % of claim	–	–	–	–	–
Vitamin A	136 % of claim	134 % of claim	113 % of claim	106 % of claim	110 % of claim	–	–	–	–	–
Vitamin E	126 % of claim	115 % of claim	110 % of claim	125 % of claim	121 % of claim	–	–	–	–	–

Now from value to molecule, other results behind:

Result as % of claim at indicated weeks ([1]; 0 wk)	Result as % of claim at indicated weeks ([1]; 4 wk)	Result as % of claim at indicated weeks ([1]; 8 wk)	Result as % of claim at indicated weeks ([1]; 13 wk)	Result as % of claim at indicated weeks ([1]; 26 wk)	Molecule	Dissolution, result as % of claim at indicated weeks ([2]; 13 wk)	Dissolution, result as % of claim at indicated weeks ([2]; 26 wk)	Dissolution, result as % of claim at indicated weeks ([2]; 0 wk)	Dissolution, result as % of claim at indicated weeks ([2]; 4 wk)	Dissolution, result as % of claim at indicated weeks ([2]; 8 wk)
115 % of claim	111 % of claim	111 % of claim	114 % of claim	109 % of claim	[Cu] [Copper]	–	–	–	–	–
169 % of claim	132 % of claim	125 % of claim	120 % of claim	117 % of claim	Nc1nc2ncc(CNc3ccc(C(=O)N[C@@H](CCC(=O)O)C(=O)O)cc3)nc2c(=O)[nH]1 [Folic Acid]	–	–	–	–	–
131 % of claim	144 % of claim	170 % of claim	156 % of claim	150 % of claim	CC(C)=CCC/C(C)=C/C=C/C(C)=C/C=C/C(C)=C/C=C/C=C(C)/C=C/C=C(C)/C=C/C=C(\C)CCC=C(C)C [Lycopene]	–	–	–	–	–
132 % of claim	123 % of claim	125 % of claim	123 % of claim	123 % of claim	Cc1cc2nc3c(=O)[nH]c(=O)nc-3n(C[C@H](O)[C@H](O)[C@H](O)CO)c2cc1C [Vitamin B2, Riboflavin]	119 % of claim	125 % of claim	133 % of claim	120 % of claim	109 % of claim
116 % of claim	109 % of claim	110 % of claim	137 % of claim	114 % of claim	Cc1ncc(CO)c(CO)c1O.Cl [Vitamin B6]	–	–	–	–	–
108 % of claim	106 % of claim	103 % of claim	114 % of claim	104 % of claim	O=C1O[C@H]([C@@H](O)CO)C(O)=C1O [Vitamin C]	–	–	–	–	–
